“And” between values parts separate entries of the source, which are not always exact repeats. Equal values may be shown once. Strand notation (5' to 3'): a small letter for the sugar, then the base; units joined by * are phosphorothioate-linked, units joined directly phosphodiester-linked; [ ] holds rarer units or linkages, { } end groups; capitals alone tell only the bases. d = 2'-deoxy (DNA)

The first data set deals with T1, human type II phospholipase A2 (Homo sapiens, UniProt P14555).
T1 sequence (P14555 21-144): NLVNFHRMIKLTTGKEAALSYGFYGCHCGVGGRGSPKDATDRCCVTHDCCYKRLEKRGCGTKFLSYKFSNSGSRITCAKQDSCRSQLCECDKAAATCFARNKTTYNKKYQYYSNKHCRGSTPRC
Nature of the data set: Phospholipase A2 assay, 3H-oleic acid labelled E. coli substrate. The conditions noted are these: 1 μM. Format: biochemical.
With “GGG T GGG T ATA G AAG G GCT CC (GGGTGGGTATAGAAGGGCTCC; chemistry not given here) [ISIS 3196]”, the “inhibition of enzyme activity” value was “completely inhibited”.

As to “GTAGGGAGGGAGGGTATGAGA (dG*dT*dA*dG*dG*dG*dA*dG*dG*dG*dA*dG*dG*dG*dT*dA*dT*dG*dA*dG*dA) [ISIS 3470]”, the “inhibition of enzyme activity” value is listed as “completely inhibited”.

For the substance “GTGGAGGAGAGCAGTAGAAGG (dG*dT*dG*dG*dA*dG*dG*dA*dG*dA*dG*dC*dA*dG*dT*dA*dG*dA*dA*dG*dG) [ISIS 3477]”, the “inhibition of enzyme activity” value was 54.7%.

The data set is the same for the next values; noted with them: Table 4; 1 μM.
“3181 (antisense dT*dC*dT*dG*dC*dC*dC*dC*dG*dG*dC*dC*dG*dT*dC*dG*dC*dT*dC*dC*dC) [compound 3181]”: the “% Inhibition (1 μM)” value came to 42.7%.

Take “3182 (antisense dC*dA*dG*dA*dG*dG*dA*dC*dT*dC*dC*dA*dG*dA*dG*dT*dT*dG*dT*dA*dT) [compound 3182]”: the “% Inhibition (1 μM)” value is listed as 30.2%.

On to “3184 (antisense dT*dT*dC*dA*dT*dG*dG*dT*dA*dA*dG*dA*dG*dT*dT*dC*dT*dT*dG*dG*dG) [compound 3184]”, for which the “% Inhibition (1 μM)” value is listed as 25.1%.

Turning to “3185 (antisense CAAAGATCATGATCACTGCCA; phosphorothioate, chemistry not fully specified) [compound 3185]”, the “% Inhibition (1 μM)” value is 22.7%.

On to “3192 (dG*dG*dA*dA*dG*dG*dT*dT*dT*dC*dC*dA*dG*dG*dG*dA*dA*dG*dA*dG*dG) [compound 3192]”, for which the “% Inhibition (1 μM)” value is 28.1%.

Consider “3193 (dC*dC*dT*dG*dC*dA*dG*dT*dA*dG*dG*dC*dC*dT*dG*dG*dA*dA*dG*dG*dA) [compound 3193]”, for which the “% Inhibition (1 μM)” value is given as 22.6%.

Consider “3196 (dG*dG*dG*dT*dG*dG*dG*dT*dA*dT*dA*dG*dA*dA*dG*dG*dG*dC*dT*dC*dC) [compound 3196]”, for which the “% Inhibition (1 μM)” value was 98.5%.

In the case of “3468 (dG*dG*dG*dA*dC*dT*dC*dA*dG*dC*dA*dA*dC*dG*dA*dG*dG*dG*dG*dT*dG) [compound 3468]”, the “% Inhibition (1 μM)” value came to 97.5%.

Consider “3470 (dG*dT*dA*dG*dG*dG*dA*dG*dG*dG*dA*dG*dG*dG*dT*dA*dT*dG*dA*dG*dA) [compound 3470]”, for which the “% Inhibition (1 μM)” value came out at 88.9%.

Turning to “3471 (dA*dA*dG*dG*dA*dA*dC*dT*dT*dG*dG*dT*dT*dA*dG*dG*dG*dT*dA*dG*dG) [compound 3471]”, the “% Inhibition (1 μM)” value is recorded as 34.5%.

As for “3472 (dT*dG*dG*dG*dT*dG*dA*dG*dG*dG*dA*dT*dG*dC*dT*dT*dT*dC*dT*dG*dC) [compound 3472]”, the “% Inhibition (1 μM)” value came to 69.0%.

For the substance “3473 (dC*dT*dG*dC*dC*dT*dG*dG*dC*dC*dT*dC*dT*dA*dG*dG*dA*dT*dG*dG*dG) [compound 3473]”, the “% Inhibition (1 μM)” value is 25.9%.

With “3474 (dA*dT*dA*dG*dA*dA*dG*dG*dG*dC*dT*dC*dC*dT*dG*dC*dC*dT*dG*dG*dC) [compound 3474]”, the “% Inhibition (1 μM)” value was found to be 13.3%.

Regarding “3475 (dT*dC*dT*dC*dA*dT*dT*dC*dT*dG*dG*dG*dT*dG*dG*dG*dT*dA*dT*dA*dG) [compound 3475]”, the “% Inhibition (1 μM)” value came to 67.0%.

With “3476 (dG*dC*dT*dG*dG*dA*dA*dA*dT*dC*dT*dG*dC*dT*dG*dG*dA*dT*dG*dT*dC) [compound 3476]”, the “% Inhibition (1 μM)” value came to 43.4%.

As to “3477 (dG*dT*dG*dG*dA*dG*dG*dA*dG*dA*dG*dC*dA*dG*dT*dA*dG*dA*dA*dG*dG) [compound 3477]”, the “% Inhibition (1 μM)” value came out at 54.7%.

For the substance “3478 (dT*dG*dG*dT*dT*dA*dA*dG*dC*dA*dC*dG*dG*dA*dG*dT*dT*dG*dA*dG*dG) [compound 3478]”, the “% Inhibition (1 μM)” value is 26.4%.

As for “3479 (dC*dC*dG*dG*dA*dG*dT*dA*dC*dA*dG*dC*dT*dT*dC*dT*dT*dT*dG*dG*dT) [compound 3479]”, the “% Inhibition (1 μM)” value is 42.3%.

“3480 (dT*dT*dG*dC*dT*dT*dT*dA*dT*dT*dC*dA*dG*dA*dA*dG*dA*dG*dA*dC*dC) [compound 3480]”: the “% Inhibition (1 μM)” value was found to be 24.5%.

“3481 (dT*dT*dT*dT*dT*dG*dA*dT*dT*dT*dG*dC*dT*dA*dA*dT*dT*dG*dC*dT*dT) [compound 3481]”: the “% Inhibition (1 μM)” value was 2.2%.

In the case of “3628 (dG*dG*dA*dG*dC*dC*dC*dT*dT*dC*dT*dA*dT*dA*dC*dC*dC*dA*dC*dC*dC) [compound 3628]”, the “% Inhibition (1 μM)” value stood at 13.6%.

For “3629 (dC*dA*dC*dC*dC*dC*dT*dC*dG*dT*dT*dG*dC*dT*dG*dA*dG*dT*dC*dC*dC) [compound 3629]”, the “% Inhibition (1 μM)” value worked out at 20.5%.

For “3630 (dT*dC*dT*dC*dA*dT*dA*dC*dC*dC*dT*dC*dC*dC*dT*dC*dC*dC*dT*dA*dC) [compound 3630]”, the “% Inhibition (1 μM)” value is on record as 17.6%.

For “3631 (dA*dG*dG*dT*dC*dG*dA*dG*dG*dA*dG*dT*dG*dG*dT*dC*dT*dG*dA*dG*dC) [compound 3631]”, the “% Inhibition (1 μM)” value stood at 20.7%.

Consider “3632 (dC*dC*dA*dG*dG*dA*dG*dA*dG*dG*dT*dC*dG*dG*dT*dA*dA*dG*dG*dC*dG) [compound 3632]”, for which the “% Inhibition (1 μM)” value came to 29.2%.

For the substance “3633 (dG*dT*dA*dG*dG*dG*dA*dT*dG*dG*dG*dA*dG*dT*dG*dA*dA*dG*dG*dA*dG) [compound 3633]”, the “% Inhibition (1 μM)” value was 58.5%.

For the substance “3659 (dT*dG*dC*dT*dC*dC*dT*dC*dC*dT*dT*dG*dG*dT*dG*dG*dC*dT*dC*dT*dC) [compound 3659]”, the “% Inhibition (1 μM)” value stood at 38.2%.

As to “3663 (dC*dT*dC*dT*dG*dC*dT*dG*dG*dG*dT*dG*dG*dT*dC*dT*dC*dA*dA*dC*dT) [compound 3663]”, the “% Inhibition (1 μM)” value is reported as 16.3%.

With “3665 (dG*dG*dA*dC*dT*dG*dG*dC*dC*dT*dA*dG*dC*dT*dC*dC*dT*dC*dT*dG*dC) [compound 3665]”, the “% Inhibition (1 μM)” value amounted to 45.8%.

With “3669 (dG*dG*dT*dG*dA*dC*dA*dA*dA*dT*dG*dC*dA*dG*dA*dT*dG*dG*dA*dC*dT) [compound 3669]”, the “% Inhibition (1 μM)” value came out at 34.7%.

On to “3671 (dT*dA*dG*dG*dA*dG*dG*dG*dT*dC*dT*dT*dC*dA*dT*dG*dG*dT*dA*dA*dG) [compound 3671]”, for which the “% Inhibition (1 μM)” value was found to be 49.3%.

On to “3676 (dA*dG*dC*dT*dC*dT*dT*dA*dC*dC*dA*dA*dA*dG*dA*dT*dC*dA*dT*dG*dA) [compound 3676]”, for which the “% Inhibition (1 μM)” value was determined as 24.5%.

Consider “3679 (dA*dG*dT*dA*dG*dG*dC*dC*dT*dG*dG*dA*dA*dG*dG*dA*dA*dA*dT*dT*dT) [compound 3679]”, for which the “% Inhibition (1 μM)” value stood at 30.3%.

Turning to “3688 (dT*dG*dG*dC*dC*dT*dC*dA*dC*dC*dG*dA*dT*dC*dC*dG*dT*dT*dG*dC*dA) [compound 3688]”, the “% Inhibition (1 μM)” value is on record as 43.1%.

Consider “3694 (dA*dC*dA*dG*dC*dA*dG*dC*dT*dG*dT*dG*dA*dG*dG*dA*dG*dA*dC*dA*dC) [compound 3694]”, for which the “% Inhibition (1 μM)” value was 28.2%.

Take “3697 (dA*dC*dT*dC*dT*dT*dA*dC*dC*dA*dC*dA*dG*dG*dT*dG*dA*dT*dT*dC*dT) [compound 3697]”: the “% Inhibition (1 μM)” value worked out at 39%.

As to “3712 (dA*dG*dG*dA*dG*dT*dC*dC*dT*dG*dT*dT*dT*dT*dG*dA*dA*dA*dT*dC*dA) [compound 3712]”, the “% Inhibition (1 μM)” value came out at 31.8%.

In the case of “4133 (dA*dG*dT*dG*dC*dA*dC*dG*dT*dT*dG*dA*dG*dT*dA*dT*dG*dT*dG*dA*dG) [compound 4133]”, the “% Inhibition (1 μM)” value amounted to 37.3%.

Consider “4149 (dC*dT*dA*dC*dG*dG*dC*dA*dG*dA*dG*dA*dC*dG*dA*dG*dA*dT*dA*dG*dC) [compound 4149]”, for which the “% Inhibition (1 μM)” value came out at 20.2%.

Still in this data set, the particulars now being: Table 5; 1 μM; two separate experiments.
Regarding “3196 (dG*dG*dG*dT*dG*dG*dG*dT*dA*dT*dA*dG*dA*dA*dG*dG*dG*dC*dT*dC*dC) [compound 3196]”, the “% Inhibition (1 μM)” value was 100% and 76.2%.

Turning to “4672 (dG*dG*dG*dT*dG*dG*dG*dT*dA*dT*dA*dG) [compound 4672]”, the “% Inhibition (1 μM)” value is 73.9% and 94.6%.

For “4946 (dG*dG*dG*dT*dG*dG*dG*dA*dA*dT*dA*dG) [compound 4946]”, the “% Inhibition (1 μM)” value came to 73.2%.

With “4947 (dA*dG*dG*dT*dG*dG*dG*dT*dA*dT*dA*dG) [compound 4947]”, the “% Inhibition (1 μM)” value stood at 22.7%.

With “4955 (dG*dG*dG*dA*dG*dG*dG*dT*dA*dT*dA*dG) [compound 4955]”, the “% Inhibition (1 μM)” value is given as 97.5%.

As to “4956 (dG*dG*dG*dC*dG*dG*dG*dT*dA*dT*dA*dG) [compound 4956]”, the “% Inhibition (1 μM)” value was 92.0%.

Consider “4957 (dG*dG*dG*dT*dG*dG*dA*dT*dA*dT*dA*dG) [compound 4957]”, for which the “% Inhibition (1 μM)” value turned out to be 81.9%.

Regarding “4962 (dG*dG*dG*dT*dG*dG*dG*dT*dA*dT) [compound 4962]”, the “% Inhibition (1 μM)” value stood at 36.3%.

The data set is the same for the next values; noted with them: b86; fold higher.
Consider “3628 (dG*dG*dA*dG*dC*dC*dC*dT*dT*dC*dT*dA*dT*dA*dC*dC*dC*dA*dC*dC*dC) [compound 3628]”, for which the “I.C.50 relative to ISIS 3196” value is reported as “approximately 10 fold”.

For “AGGTCGAGGAGTGGTCTGAGC (dA*dG*dG*dT*dC*dG*dA*dG*dG*dA*dG*dT*dG*dG*dT*dC*dT*dG*dA*dG*dC) [ISIS 3631]”, the “I.C.50 relative to ISIS 3196” value is “approximately 10 fold”.

Staying with this data set, now noted: boiling water for 15 minutes prior to addition to the assay.
As usually defined, the inhibition is how much of the control response was suppressed. Read a low inhibition as a response near the control. The substance “GGG T GGG T ATA G AAG G GCT CC (GGGTGGGTATAGAAGGGCTCC; chemistry not given here) [ISIS 3196]” showed an inhibition of 21%.

Still in this data set, the particulars now being: concentrations as high as 10 μM.
For “ISIS 1573: phosphorothioate deoxyoligonucleotide, SEQ ID NO: 120 (DNA dG*dA*dG*dG*dC*dT*dG*dA*dG*dG*dT*dG*dG*dG*dA*dG*dG*dA)”, the “inhibition of phospholipase A2” value is “did not significantly inhibit”.

The same data set, now with this note: increasing amounts of E. coli substrate; ISIS 3481 at 0.2 μM and 2 μM.
As to “GGG T GGG T ATA G AAG G GCT CC (GGGTGGGTATAGAAGGGCTCC; chemistry not given here) [ISIS 3196]”, the “effect on substrate kinetics” value is given as “apparent noncompetitive inhibitor”.

For “TTTTTGATTTGCTAATTGCTT (dT*dT*dT*dT*dT*dG*dA*dT*dT*dT*dG*dC*dT*dA*dA*dT*dT*dG*dC*dT*dT) [ISIS 3481]”, the “effect on substrate kinetics” value is on record as “did not modify the substrate kinetics”.

Still in this data set, the particulars now being: native, not boiled.
Consider “GGG T GGG T ATA G AAG G GCT CC (GGGTGGGTATAGAAGGGCTCC; chemistry not given here) [ISIS 3196]”, for which the inhibition is 94%.

The subject of a further data set is HIV-1.
Experiment: not given
The conditions noted are these: Table 16; acute HIV assay; listed as ToToGoGoGoGoToT.
Take TT GGGG TT [ISIS 5671]: the IC50 entry was “inactive”.

The record behind these values is patent US20110124715A1, “Antiviral Oligonucleotides Having a Conserved G4 Core Sequence” (priority 1992, published 2011).
